The nature of series [1]: Pharmacokinetic profile of cannabinoid sulfate esters compared to CBD. Particulars: for Cmax / Tmax / half-life: plasma.
Text: The PK profile of certain exemplary cannabinoid sulfate esters, including the half-life (T1/2), maximum plasma concentration (Cmax), and time to reach Cmax (Tmax), is shown compared to CBD in the table below.
The conditions of series [2]: pH 7.4; cited from earlier work.
A further series deals with intraocular pressure. Particulars: normotensive rabbit; cited from earlier work.

Counter-ions that a name gives are not always drawn.

Turning to `C=C(C)[C@@H]1CCC(C)=C[C@H]1c1c(O)cc(CCCCC)cc1OS(=O)(=O)O` [CBD sulfate morpholinium salt, morpholin-4-ium (1′R,2′R)-6-hydroxy-5′-methyl-4-pentyl-2′-(prop-1-en-2-yl)-1′,2′,3′,4′-tetrahydro-[1,1′-biphenyl]-2-yl sulfate], in series [1], the peak level (Cmax) was 10 ng/mL, the Tmax was 1 h and the half-life is 1960 min.

Turning to `C=C(C)[C@@H]1CCC(C)=C[C@H]1c1c(O)cc(CCCCC)cc1OS(=O)(=O)O` [CBD sulfate piperazinium salt, piperazin-1-ium (1′R,2′R)-6-hydroxy-5′-methyl-4-pentyl-2′-(prop-1-en-2-yl)-1′,2′,3′,4′-tetrahydro-[1,1′-biphenyl]-2-yl sulfate], the T1/2 in series [1] (half-life) was found to be 3.0 h. The Tmax in series [1] turned out to be 1 h. This molecule also gave a Cmax in series [1] (Cmax, maximum plasma concentration) of 19 ng/mL.

As for `C=C(C)[C@@H]1CCC(C)=C[C@H]1c1c(O)cc(CCCCC)cc1OS(=O)(=O)[O-].[Na+]` [CBD sulfate sodium salt, sodium (1′R,2′R)-6-hydroxy-5′-methyl-4 pentyl-2′-(prop-1-en-2-yl)-1′,2′,3′,4′-tetrahydro-[1,1′-biphenyl]-2-yl sulfate], in series [1], the highest level (Cmax) was 12 ng/mL, the Tmax was determined as 1 h and the half-life was 174 min.

Consider `C=C(C)[C@@H]1CCC(C)=C[C@H]1c1c(O)cc(CCCCC)cc1O` [CBD, cannabidiol, reference compound], for which, in series [1], the Cmax was 4.8 ng/mL, the time to peak (Tmax) worked out at 0.5 h and the half-life was 234 min.

Take `CCCCC/C=C\C/C=C\C/C=C\C/C=C\CCCC(=O)NCCOP(=O)(O)O` [phosphate ester pro-drug of anandamide]: the “increase of aqueous solubility over the parent endocannabinoid” value in series [2] was > 16 500 fold. For the same molecule, the intraocular pressure result with intraocular pressure is recorded as “reduced the intraocular pressure”.

A word on the Cmax: it is the highest concentration seen after dosing. By Tmax is commonly meant the time at which the peak concentration occurs. The term half-life denotes the time in which the quantity being followed falls by half.

(Values after patent US12655094B2, “Cannabinoid sulfate esters, their salts and uses thereof” (LONDON PHARMACEUTICALS AND RESEARCH CORPORATION, priority 2020, dated 2026).)
